The supplement of paper PMC11061612

Columns and labels:
Assay in all cases: combination Emax (second highest fraction inhibited in the dose matrix, 72 h); higher = more inhibition; extreme values may be limits of the assay
[1] = tested on: NCI-H2141 (Small Cell Lung Carcinoma)
In short: (§1)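 Cell lines grown in DMEM/F12 or RPMI with 10% FBS were plated in 1536-well plates and held 24 hours at 37°C, 5% CO2 before 72 hours of exposure to two-drug dose matrices, with DMSO typically at 0.2%. CellTiter-Glo 2.0 luminescence gave viability, which was converted to inhibition. Vehicle wells were set to 0 and blank wells to 1. Combination Emax is the second-highest inhibition in the matrix, and Bliss excess is the observed combination effect minus the expected EA + EB − EA·EB, where EA and EB are the single-agent effects.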

[2] = tested on: TT2609-C02 (Thyroid Gland Carcinoma)
In short: as §1

[3] = tested on: SISO (Cervical Carcinoma)
In short: as §1

FU97 (Gastric Carcinoma) = tested on: FU97 (Gastric Carcinoma)
In short: as §1

[4] = tested on: OS-RC-2 (Kidney Carcinoma)
In short: as §1

[5] = tested on: COLO-320-HSR (Colorectal Carcinoma)
In short: as §1

[6] = tested on: ONS-76 (Other Solid Carcinomas)
In short: as §1

NCI-H2591 (Mesothelioma) = tested on: NCI-H2591 (Mesothelioma)
In short: as §1

[7] = tested on: BICR22 (Oral Cavity Carcinoma)
In short: as §1

[8] = tested on: NCI-H1693 (Lung Adenocarcinoma)
In short: as §1

U-2-OS (Osteosarcoma) = tested on: U-2-OS (Osteosarcoma)
In short: as §1

[9] = tested on: SK-MG-1 (Low Grade Glioma)
In short: as §1

CAS-1 (Glioblastoma) = tested on: CAS-1 (Glioblastoma)
In short: as §1

[10] = tested on: VCaP (Prostate Carcinoma)
In short: as §1

[11] = tested on: CAPAN-2 (Pancreatic Carcinoma)
In short: as §1

[12] = tested on: NCI-H1650 (Lung Adenocarcinoma)
In short: as §1

[13] = tested on: MDST8 (Colorectal Carcinoma)
In short: as §1

[14] = tested on: KARPAS-422 (B-Cell Non-Hodgkin's Lymphoma)
In short: as §1

[15] = tested on: NCI-H2066 (Squamous Cell Lung Carcinoma)
In short: as §1

GI-ME-N (Neuroblastoma) = tested on: GI-ME-N (Neuroblastoma)
In short: as §1

For `CN(C)CCCOc1ccc(-c2ccc3ncc4c(c3c2)n(C2CCOCC2)c(=O)n4C)cn1` [AZD0156] + C=CCn1c(=O)c2cnc(Nc3ccc(N4CCN(C)CC4)cc3)nc2n1-c1cccc(C(C)(C)O)n1 [AZD1775] (first compound max 1 µM, partner max 1 µM), the “combination Emax” value [1] was 0.558, the “combination Emax” value [2] was 0.334 and the “combination Emax” value [3] was 0.566. The “combination Emax” value (FU97 (Gastric Carcinoma)) was 0.367, the “combination Emax” value [4] was 0.326 and the “combination Emax” value [5] was 0.719. For the same compound, the “combination Emax” value [6] was 0.675, the “combination Emax” value (NCI-H2591 (Mesothelioma)) was 0.191 and the “combination Emax” value [7] was 0.516. For the same compound, the “combination Emax” value [8] was 0.179, the “combination Emax” value (U-2-OS (Osteosarcoma)) was 0.734 and the “combination Emax” value [9] was 0.525. For the same compound, the “combination Emax” value (CAS-1 (Glioblastoma)) was 0.464, the “combination Emax” value [10] was 0.553 and the “combination Emax” value [11] was 0.39. The “combination Emax” value [12] was 0.385, the “combination Emax” value [13] was 0.416 and the “combination Emax” value [14] was 0.607. The “combination Emax” value [15] was 0.208 and the “combination Emax” value (GI-ME-N (Neuroblastoma)) was 0.321.
With `CN(C)CCCOc1ccc(-c2ccc3ncc4c(c3c2)n(C2CCOCC2)c(=O)n4C)cn1` [AZD0156] + CCN(CCO)CCCOc1ccc2c(Nc3cc(CC(=O)Nc4cccc(F)c4)[nH]n3)ncnc2c1 [AZD2811] (first compound max 1 µM, 7x7, partner max 1 µM) the “combination Emax” value [1] was 0.289, the “combination Emax” value [2] was 0.258 and the “combination Emax” value [3] was 0.172. For the same compound, the “combination Emax” value (FU97 (Gastric Carcinoma)) was 0.188, the “combination Emax” value [4] was 0.11 and the “combination Emax” value [5] was 0. For the same compound, the “combination Emax” value [6] was 0.293, the “combination Emax” value (NCI-H2591 (Mesothelioma)) was 0.112 and the “combination Emax” value [7] was 0.375. The “combination Emax” value [8] was 0.142, the “combination Emax” value (U-2-OS (Osteosarcoma)) was 0.152 and the “combination Emax” value [9] was 0.388. For the same compound, the “combination Emax” value (CAS-1 (Glioblastoma)) was 0.263, the “combination Emax” value [10] was 0.118 and the “combination Emax” value [11] was 0.122. The “combination Emax” value [12] was 0.101, the “combination Emax” value [13] was 0.281 and the “combination Emax” value [14] was 0.641. For the same compound, the “combination Emax” value [15] was 0.192 and the “combination Emax” value (GI-ME-N (Neuroblastoma)) was 0.0704.
In the case of `CN(C)CCCOc1ccc(-c2ccc3ncc4c(c3c2)n(C2CCOCC2)c(=O)n4C)cn1` [AZD0156] + C[C@@H]1COCCN1C2=NC(=NC(=C2)C3(CC3)[S@](=N)(=O)C)C4=C5C=CNC5=NC=C4 [AZD6738] (first compound max 1 µM, 7x7, partner max 10 µM), the “combination Emax” value [1] is reported as 0.462, the “combination Emax” value [2] is reported as 0.144 and the “combination Emax” value [3] is reported as 0.588. The “combination Emax” value (FU97 (Gastric Carcinoma)) was 0.414, the “combination Emax” value [4] was 0.425 and the “combination Emax” value [5] was 0.652. For the same compound, the “combination Emax” value [6] was 0.942, the “combination Emax” value (NCI-H2591 (Mesothelioma)) was 0.293 and the “combination Emax” value [7] was 0.724. For the same compound, the “combination Emax” value [8] was 0.192, the “combination Emax” value (U-2-OS (Osteosarcoma)) was 0.856 and the “combination Emax” value [9] was 0.565. The “combination Emax” value (CAS-1 (Glioblastoma)) was 0.582, the “combination Emax” value [10] was 0.359 and the “combination Emax” value [11] was 0.395. For the same compound, the “combination Emax” value [12] was 0.376, the “combination Emax” value [13] was 0.919 and the “combination Emax” value [14] was 0.653. The “combination Emax” value [15] was 0.35 and the “combination Emax” value (GI-ME-N (Neuroblastoma)) was 0.697.
`CN(C)CCCOc1ccc(-c2ccc3ncc4c(c3c2)n(C2CCOCC2)c(=O)n4C)cn1` [AZD0156] + O=C(c1cc(Cc2n[nH]c(=O)c3ccccc23)ccc1F)N1CCN(C(=O)C2CC2)CC1 [Olaparib] (first compound max 3 µM, partner max 3 µM) was tested, and the “combination Emax” value [1] was 0.192, the “combination Emax” value [2] was 0.152 and the “combination Emax” value [3] was 0.303. For the same compound, the “combination Emax” value (FU97 (Gastric Carcinoma)) was 0.422, the “combination Emax” value [4] was 0.269 and the “combination Emax” value [5] was 0.301. The “combination Emax” value [6] was 0.235, the “combination Emax” value (NCI-H2591 (Mesothelioma)) was 0.135 and the “combination Emax” value [7] was 0.135. For the same compound, the “combination Emax” value [8] was 0.248, the “combination Emax” value (U-2-OS (Osteosarcoma)) was 0.201 and the “combination Emax” value [9] was 0.319. For the same compound, the “combination Emax” value (CAS-1 (Glioblastoma)) was 0.449, the “combination Emax” value [10] was 0.296 and the “combination Emax” value [11] was 0.291. For the same compound, the “combination Emax” value [12] was 0.226, the “combination Emax” value [13] was 0.361 and the “combination Emax” value [14] was 0.56. For the same compound, the “combination Emax” value [15] was 0.215 and the “combination Emax” value (GI-ME-N (Neuroblastoma)) was 0.193.
For `C=CCn1c(=O)c2cnc(Nc3ccc(N4CCN(C)CC4)cc3)nc2n1-c1cccc(C(C)(C)O)n1` [AZD1775] + C1CN(CCC1(C(=O)N[C@@H](CCO)C2=CC=C(C=C2)Cl)N)C3=NC=NC4=C3C=CN4 [Capivasertib] (first compound max 3 µM, partner max 3 µM), the “combination Emax” value [1] was 0.641, the “combination Emax” value [2] was 0.466 and the “combination Emax” value [3] was 0.731. The “combination Emax” value (FU97 (Gastric Carcinoma)) was 0.471, the “combination Emax” value [4] was 0.406 and the “combination Emax” value [5] was 0.854. The “combination Emax” value [6] was 0.76, the “combination Emax” value (NCI-H2591 (Mesothelioma)) was 0.178 and the “combination Emax” value [7] was 0.594. For the same compound, the “combination Emax” value [8] was 0.449, the “combination Emax” value (U-2-OS (Osteosarcoma)) was 0.665 and the “combination Emax” value [9] was 0.591. The “combination Emax” value (CAS-1 (Glioblastoma)) was 0.709, the “combination Emax” value [10] was 0.647 and the “combination Emax” value [11] was 0.513. The “combination Emax” value [12] was 0.61, the “combination Emax” value [13] was 0.704 and the “combination Emax” value [14] was 0.856. The “combination Emax” value [15] was 0.685 and the “combination Emax” value (GI-ME-N (Neuroblastoma)) was 0.451.
In the case of `C=CCn1c(=O)c2cnc(Nc3ccc(N4CCN(C)CC4)cc3)nc2n1-c1cccc(C(C)(C)O)n1` [AZD1775] + C[C@@H]1COCCN1C2=NC(=NC(=C2)C3(CC3)[S@](=N)(=O)C)C4=C5C=CNC5=NC=C4 [AZD6738] (first compound max 1 µM, partner max 10 µM), the “combination Emax” value [1] is reported as 0.675, the “combination Emax” value [2] is reported as 0.393 and the “combination Emax” value [3] is reported as 0.822. The “combination Emax” value (FU97 (Gastric Carcinoma)) was 0.373, the “combination Emax” value [4] was 0.453 and the “combination Emax” value [5] was 0.821. For the same compound, the “combination Emax” value [6] was 0.942, the “combination Emax” value (NCI-H2591 (Mesothelioma)) was 0.389 and the “combination Emax” value [7] was 0.799. The “combination Emax” value [8] was 0.331, the “combination Emax” value (U-2-OS (Osteosarcoma)) was 0.852 and the “combination Emax” value [9] was 0.702. For the same compound, the “combination Emax” value (CAS-1 (Glioblastoma)) was 0.657, the “combination Emax” value [10] was 0.602 and the “combination Emax” value [11] was 0.486. For the same compound, the “combination Emax” value [12] was 0.53, the “combination Emax” value [13] was 0.816 and the “combination Emax” value [14] was 0.786. The “combination Emax” value [15] was 0.605 and the “combination Emax” value (GI-ME-N (Neuroblastoma)) was 0.548.
